# Tests used:
# [1] = tested on: MTX-naïve adult patients with active, early RA (<3 years); experiment: Study J: clinical remission by DAS28<2.6; type: in vivo, human
# Experimental: Clinical remission, defined as DAS28<2.6, is described below in Table 25.
# Secondary endpoints included DAS28<2.6 at year 1 and Major Clinical Response (MCR=ACR70 response for ≧6 continuous months during a 2-year period).
# At 1 and 2 years, the American College of Rheumatology (ACR) responses (ACR20, ACR50, and ACR70), the Disease Activity Score 28 (DAS28), and the change (Δ) in Total Sharp Score (TSS) were determined for all patients. Results were analyzed for the intention-to-treat (ITT) population using imputation for missing data. Clinical remission was defined as DAS28<2.6. The mean ΔTSS values at 1 year and 2 years (N=791) were determined for patients in each ACR response category (ACR20/50/70) and for patients with DAS28<2.6
# [2] = tested on: MTX-naïve adult patients with active, early RA (<3 years); experiment: Study J: CRP normalization; type: in vivo, human; settings: for Patient numbers: CRP Abnormal at Baseline, Abnormal at 1 Year / Patient numbers: CRP Normal at Baseline, Abnormal at 1 Year: Abnormal CRP >0.8 mg/dL; for Patient numbers: CRP Abnormal at Baseline, Normal at 1 Year / Patient numbers: CRP Normal at Baseline, Normal at 1 Year: Normal CRP ≦0.8 mg/dL
# Experimental: (§1) Baseline demographics and clinical characteristics of the patients enrolled in this study are described in Example 7. […] After 1 and 2 years of therapy, the percentages of patients with ACR90 responses, TJC=0, SJC=0, HAQ=0, morning stiffness=0 minutes, and normal CRP were determined. Data are from the intention-to-treat (ITT) population with imputation used for missing values. Results were compared with the percentages of patients who achieved DAS28<2.6 or a Major Clinical Response (MCR).
# Radiographic progression was assessed by mean change from baseline in Total Sharp Score (TSS) and stratified into those with (ΔTSS>0.5) and without (Δ≦TSS 0.5). Patients were categorized as either having radiographic progression at 1 year (ΔTSS>0.5) or not (Δ≦TSS 0.5). A logistic regression model was used to identify predictors of radiographic disease progression by testing several baseline characteristics, including age, disease duration, RF status, TJC, SJC, joint erosions, and CRP. For analyses of CRP, patients were categorized as normal (CRP≦0.8 mg/dL) or abnormal (CRP>0.8 mg/dL).
# [3] = tested on: MTX-naïve adult patients with active, early RA (<3 years); experiment: Study J: subject disposition and withdrawals; settings: 2 years
# [4] = tested on: MTX-naïve adult patients with active, early RA (<3 years); experiment: Study J: treatment emergent adverse events; settings: 2 years
# From the text: Study J was a 2-year randomized controlled trial in patients with early RA (disease duration<3 years). Participants in these clinical trials and in other phase Mb studies, were routinely evaluated for safety. Reports of serious adverse events (SAE) were tabulated using MedDRA coding by events per 100-patient-years (E/100PY). SAE rates were compared with respect to disease duration between patients with early (<3 yrs) and long-standing RA.
# [5] = tested on: MTX-naïve adult patients with active, early RA (<3 years); experiment: Study J: individual clinical remission criteria (TJC=0, SJC=0, HAQ=0, morning stiffness=0); type: in vivo, human
# Experimental: as §1, with “A total of 799 patients were enrolled. Baseline” for “Baseline”, “7. Baseline demographics and clinical characteristics were similar among the 3 arms, i.e., ada+mtx, ada alone, or mtx alone.” for “7.”
# [6] = tested on: patients with RA who had failed prior treatment with infliximab; experiment: Adalimumab after failed infliximab: ACR20/ACR50 and moderate EULAR response; type: in vivo, human; settings: 16 wk
# From the text: Patients eligible to participate in the study included those with long-standing, moderate to severe RA who had terminated infliximab therapy because of lack or loss of efficacy and/or intolerance/side effects. […] Follow-up visits for safety and efficacy monitoring were scheduled at 2, 8, and 16 weeks. […] Efficacy parameters included TJC28 and SJC28; DAS28; ACR20, ACR50 Response; Moderate EULAR response; and HAQ. Subgroup analysis by reason for discontinuation included: • in case of discontinuation due to lack or loss of efficacy, patients were counted in the corresponding group regardless of additional cause of intolerance. • The subgroup “Discontinuation due to intolerance” was exclusive.
# [7] = tested on: patients with long-standing RA; experiment: Study 4: change in dosing of concomitant corticosteroids and methotrexate; type: in vivo, human
# From the text: The mean corticosteroid dose (mg/day) at baseline was 5.56, where the mean corticosteroid dose (mg/day) at the final dose was 3.57 (p<0.0001 (determined by Wilcoxon's signed rank test)).
# There was also a change in the dosing of concomitant methotrexate for RA patients in the study being treated with adalimumab. […] For only 8% of patients was the dose of mtx increased.
# [8] = all reasons for infliximab withdrawal (N=37)
# [9] = loss of response to infliximab (N=19)
# [10] = no response to infliximab (N=13)
compound,measurement,setting,value
"CN(Cc1cnc2nc(N)nc(N)c2n1)c1ccc(C(=O)N[C@@H](CCC(=O)O)C(=O)O)cc1 [mtx alone, methotrexate]","clinical remission, DAS28 < 2.6",[1]; week 52 (1 year),21 % of patients
same,"clinical remission, DAS28 < 2.6",[1]; week 104 (2 years),25 % of patients
same,Normal CRP (≦0.8 mg/dL),[2]; 1 year,35 % patients
same,patients with abnormal baseline CRP that became normal,"[2]; 1 year, listed as MTX Alone",53% (n = 159)
same,patients with abnormal baseline CRP that became normal,"[2]; 1 year, listed as MTX alone",53%
same,Normal CRP (≦0.8 mg/dL),[2]; 2 years,29 % patients
same,"Patient numbers: CRP Abnormal at Baseline, Abnormal at 1 Year",[2],75
same,"Patient numbers: CRP Normal at Baseline, Abnormal at 1 Year",[2],7
same,"Patient numbers: CRP Abnormal at Baseline, Normal at 1 Year",[2],84
same,"Patient numbers: CRP Normal at Baseline, Normal at 1 Year",[2],21
same,"withdrawn, reason AE",[3],8%
same,"withdrawn, reason lack of efficacy",[3],18%
same,All infectious AE,[4],119 Events/100-PY
same,Demyelination,[4],0.0 Events/100-PY
same,Lymphoma,[4],0.2 Events/100-PY
same,Malignancies,[4],0.9 Events/100-PY
same,Pancytopenia,[4],0.2 Events/100-PY
same,Serious AE,[4],15.9 Events/100-PY
same,Serious Infectious AE,[4],1.6 Events/100-PY
same,Tuberculosis,[4],0.0 Events/100-PY
same,HAQ = 0,[5]; 1 year,19 % patients
same,Morning Stiffness = 0,[5]; 1 year,31 % patients
same,SJC = 0,[5]; 1 year,17 % patients
same,TJC = 0,[5]; 1 year,14 % patients
same,AM (morning) stiffness = 0,[5]; 2 years,30 % of patients
same,HAQ = 0,[5]; 2 years,19 % of patients
same,SJC = 0,[5]; 2 years,19 % of patients
same,TJC = 0,[5]; 2 years,21 % of patients
"adalimumab: human anti-TNF mAb (HUMIRA, Abbott Laboratories), described in U.S. Pat. No. 6,090,382 as D2E7",ACR20,[6]; [8],49%
same,ACR50,[6]; [8],26%
same,Moderate EULAR response,[6]; [8],65%
same,ACR20,[6]; infliximab intolerance (N=5),40%
same,ACR50,[6]; infliximab intolerance (N=5),20%
same,Moderate EULAR response,[6]; infliximab intolerance (N=5),80%
same,ACR20,[6]; [9],61%
same,ACR50,[6]; [9],39%
same,Moderate EULAR response,[6]; [9],74%
same,ACR20,[6]; [10],33%
same,ACR50,[6]; [10],8%
same,Moderate EULAR response,[6]; [10],46%
same,"clinical remission, DAS28 < 2.6",[1]; week 52 (1 year),23 % of patients
same,"clinical remission, DAS28 < 2.6",[1]; week 104 (2 years),25 % of patients
same,Normal CRP (≦0.8 mg/dL),[2]; 1 year,34 % patients
same,patients with abnormal baseline CRP that became normal,"[2]; 1 year, listed as Adalimumab Alone",52% (n = 150)
same,Normal CRP (≦0.8 mg/dL),[2]; 2 years,34 % patients
same,"Patient numbers: CRP Abnormal at Baseline, Abnormal at 1 Year",[2],72
same,"Patient numbers: CRP Normal at Baseline, Abnormal at 1 Year",[2],4
same,"Patient numbers: CRP Abnormal at Baseline, Normal at 1 Year",[2],78
same,"Patient numbers: CRP Normal at Baseline, Normal at 1 Year",[2],33
same,"withdrawn, reason lack of efficacy",[3],19%
same,Tuberculosis,[4],0.0 Events/100-PY
same,mean concomitant corticosteroid dose,[7]; at final dose (baseline 5.56),3.57 mg/day
same,mean concomitant mtx dose,[7]; at final dose of adalimumab (baseline 15.79),13.81 mg/week
same,patients with dose reduction of steroids,[7]; n=294,29%
same,patients with increased steroid dose,[7]; n=294,6%
same,patients with unchanged steroid dose,[7]; n=294,40%
same,patients with increased mtx dose,[7]; n=546,8%
same,patients with mtx dose reduction,[7]; n=546,32%
same,patients with unchanged mtx dose,[7]; n=546,60%
same,patients able to discontinue steroids,"[7]; patients on concomitant corticosteroids, n=294",24%
same,HAQ = 0,[5]; 1 year,17 % patients
same,Morning Stiffness = 0,[5]; 1 year,32 % patients
same,SJC = 0,[5]; 1 year,16 % patients
same,TJC = 0,[5]; 1 year,18 % patients
same,AM (morning) stiffness = 0,[5]; 2 years,30 % of patients
same,HAQ = 0,[5]; 2 years,19 % of patients
same,SJC = 0,[5]; 2 years,19 % of patients
same,TJC = 0,[5]; 2 years,15 % of patients
